Assay [1] concerns PC-3 (human prostate cancer cells). The experiment in a line: MTT assay for cell viability, PC-3. The assay is classed as cell-based. The conditions noted are these: 48 h. Here is the method:
(§1) The human cancer cell lines e.g. HepG2 (hepatocellular carcinoma, ATCC® HB-8065™), PC-3 (human prostate cancer cells, ATCC® CRL-1435™), MCF-7 (breast adenocarcinoma, ATCC® […]), and mouse embryo fibroblasts (NIH/3T3, ATCC® CRL-1658™), used in the present study were obtained from the ATCC (American Type Culture Collection, USA and maintained in RPMI 1640 (Roswell Park Memorial Institute, Merck) with 10% FBS (Merck), supplemented with 1% antibiotic and antimycotic solution (Gibco, USA) at 37° C. in a humidified incubator with 5% CO2. All stock solutions of the compounds were prepared in cell culture grade DMSO (dimethyl sulfoxide) and stored at −20° C. Compounds were diluted in culture media prior to use in experiments. Annexin V-FITC apoptosis detection kits were purchased from Calbiochem. MTT dye was procured from Sigma-Aldrich. All the flow cytometry experiments were performed using a FACScan (Becton Dickinson, Mountain View, Calif.) flow cytometer, equipped with a single 488 nm argon laser.
(§2) Cell viability was assessed by MTT assay, which is based on the reduction of MTT by mitochondrial dehydrogenases of viable cells to form a purple formazan product. Briefly, cells (5-6×10^3/well) were plated in 96 well plates. After incubating overnight, the cells were treated with […] different concentrations (100, 50, 20, 10, 5, 2.5, 1.25 μM) in triplicates with the cationic lipidated cordiarimide and intermediates for 48 h. Subsequently, 10 μL of MTT (10 mg/mL) was added to each well and incubated for 3 h. The MTT formazan formed by viable cells was dissolved in 100 μL of DMSO and shaken for 10 min. The absorbance was measured on an ELISA reader. Each test was repeated at least three times. The concentration of the compound which gives the 50% growth inhibition value corresponding to IC50, was calculated using GraphPad prism 5 software. In the present invention we have screened 26 lipidated cordiarimides and the results are described in table 1.

Assay [2] concerns MCF-7 (breast adenocarcinoma). The experiment in a line: MTT assay for cell viability, MCF-7. Type of assay: cell-based, human. The protocol:
as §1, §2
(Formazan colour is commonly taken as a measure of viable cells.)

The next assay has as its target human ligase I (Homo sapiens, UniProt P18858). In words: Ligation assay, DNA ligase I. The assay is classed as biochemical. An excerpt: (§3) The ligation assay was done strictly following the assay protocol described in Xi Chen et. al, Cancer Res 2008; 68(9):3169-3177. The DNA molecules 52 mer (5′-3′), 28-mer (5′-3′) and 34-mer (5′-3′) were used to construct a double stranded nicked substrate for the ligase enzyme (FIG. 4). The 34-mer oligo was labelled with 32P-AMP to form a substrate for ligase and to form a ligase-AMP intermediate. During ligation, the ligase would transfer the AMP to the nick forming a phosphodiester bond and seal the nick. The ligated DNA molecule would be larger in size and run higher up on a 7% Urea-containing denaturing acrylamide gel. If an inhibitor is added to the reaction mixture prior to the addition of ligase, this would lead to an inhibition of ligation and a corresponding loss of labelled ligated product in the gel. We would then be able to calculate the percentage of inhibition of ligation by estimating the amount of ligated product in the lane with no inhibitor and comparing it with the lanes containing different inhibitor molecules or with the same inhibitor molecule at different concentrations.

The target in a further assay is ligase IV (Homo sapiens, UniProt P49917). In words: Ligation assay, DNA ligase IV. Type of assay: biochemical.
Description: as §3

A further assay deals with hLig1-DNA complex (Homo sapiens, UniProt P18858). The experiment in a line: Electrophoretic mobility shift assay (EMSA). The assay is classed as binding. The conditions noted are these: 25, 50 and 100 μM; hLig1 10 pmol, DNA 1 pmol. The protocol:
EMSA was performed as described in Xi Chen et. al, Cancer Res 2008; 68(9):3169-3177 with some modifications, for the interaction study between 8k and hLig1. Of the three oligos used to construct the DNA substrate, one was a 5′-FAM labelled 27-mer oligo with a dideoxy modified 3′ end. Other two oligos of 25-mer and 52-mer were used. These oligos were annealed to obtain a non-ligatable nicked DNA substrate which the ligase enzyme can recognize and bind to, but cannot ligate or release from it. […] Lanes 3-5 (FIG. 6A) contain increasing concentrations of the inhibitor. A shift in signal is seen is lanes 3-5. This shift in the ligase-DNA complex can occur only if the inhibitor binds to the complex of hLig1+DNA and increases the size of the complex. If inhibitor binds to ligase alone, then we would expect fewer signals in lanes 3-5. But since we see an increase in intensity of signal as well as a super-shift in the signal, we can reliably say that the inhibitor binds to the DNA-ligase complex and not separately to either DNA or ligase.

The next assay deals with T1, T4 DNA ligase (Enterobacteria phage T4, UniProt P00970).
T1 sequence (P00970 1-487): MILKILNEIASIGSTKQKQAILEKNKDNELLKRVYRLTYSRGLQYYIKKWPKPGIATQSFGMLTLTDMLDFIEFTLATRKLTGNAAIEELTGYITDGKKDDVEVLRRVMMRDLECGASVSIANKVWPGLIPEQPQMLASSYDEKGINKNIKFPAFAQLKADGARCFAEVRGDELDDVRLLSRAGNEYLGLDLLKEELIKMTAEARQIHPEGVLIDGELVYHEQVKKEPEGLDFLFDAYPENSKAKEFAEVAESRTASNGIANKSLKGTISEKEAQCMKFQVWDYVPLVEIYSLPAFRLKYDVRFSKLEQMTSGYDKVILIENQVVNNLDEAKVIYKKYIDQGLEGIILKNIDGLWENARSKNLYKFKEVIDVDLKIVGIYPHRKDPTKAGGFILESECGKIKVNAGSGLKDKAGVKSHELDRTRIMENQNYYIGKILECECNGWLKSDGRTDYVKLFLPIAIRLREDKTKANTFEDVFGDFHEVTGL
In words: Ligation assay, T4 DNA ligase control. The conditions noted are these: 5 μM. The assay is classed as biochemical.
Description: as §3

Assay [3] deals with linearized plasmid pUC18 DNA. In words: DNA intercalation assay. The conditions noted are these: up to 100 μM, compared to doxorubicin. The assay is classed as binding. Here is the method:
Since there are multiple modes of inhibition of ligase activity, we wanted to determine whether 8k inhibited ligation by direct inhibition alone or through other means as well such as DNA intercalation. DNA intercalation assay was performed as described by Furlan et al., Biotechnol. Lett. 2002, 24, 1807-1813. We incubated 100 ng of linearized plasmid pUC18 DNA with increasing concentrations (50, 100, 200 μM) of Doxorubicin (positive control), ampicillin (negative control), and 8k for 30 minutes at 37° C. Reaction products were resolved on a 1% agarose gel at 5.3 V/cm. Gel was visualized by ethidium bromide staining.

Usually IC50 stands for the midpoint of a concentration-inhibition curve. Read a high IC50 as a need for much substance. For orientation: inhibition means the percentage by which the read-out fell short of the control.

Entries after “also recorded” stand apart in the source; their conditions may differ.

Sequence of human ligase I (P18858 whole entry): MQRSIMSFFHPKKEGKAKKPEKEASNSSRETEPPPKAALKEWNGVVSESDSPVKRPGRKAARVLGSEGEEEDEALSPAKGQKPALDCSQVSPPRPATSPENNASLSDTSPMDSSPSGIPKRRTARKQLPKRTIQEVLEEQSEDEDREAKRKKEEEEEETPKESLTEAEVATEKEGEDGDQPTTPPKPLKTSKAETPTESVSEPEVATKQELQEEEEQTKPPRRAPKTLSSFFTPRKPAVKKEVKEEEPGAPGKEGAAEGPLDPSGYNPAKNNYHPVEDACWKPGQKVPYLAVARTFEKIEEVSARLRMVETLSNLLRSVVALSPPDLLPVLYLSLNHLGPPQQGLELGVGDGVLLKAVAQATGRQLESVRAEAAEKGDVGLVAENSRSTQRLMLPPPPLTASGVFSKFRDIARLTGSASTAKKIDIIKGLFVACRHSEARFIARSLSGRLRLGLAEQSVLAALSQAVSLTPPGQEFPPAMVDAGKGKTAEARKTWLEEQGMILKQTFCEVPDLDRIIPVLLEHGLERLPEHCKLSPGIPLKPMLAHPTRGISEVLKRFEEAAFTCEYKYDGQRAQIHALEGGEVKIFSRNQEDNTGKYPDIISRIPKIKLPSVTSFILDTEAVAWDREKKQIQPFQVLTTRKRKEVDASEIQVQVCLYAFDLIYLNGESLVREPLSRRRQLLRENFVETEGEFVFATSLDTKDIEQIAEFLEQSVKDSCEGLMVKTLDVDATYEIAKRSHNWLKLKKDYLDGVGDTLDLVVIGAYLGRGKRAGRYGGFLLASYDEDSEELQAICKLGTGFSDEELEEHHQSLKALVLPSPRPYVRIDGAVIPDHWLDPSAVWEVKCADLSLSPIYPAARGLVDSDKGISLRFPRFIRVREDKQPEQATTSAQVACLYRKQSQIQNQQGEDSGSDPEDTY
Sequence of ligase IV (P49917 whole entry): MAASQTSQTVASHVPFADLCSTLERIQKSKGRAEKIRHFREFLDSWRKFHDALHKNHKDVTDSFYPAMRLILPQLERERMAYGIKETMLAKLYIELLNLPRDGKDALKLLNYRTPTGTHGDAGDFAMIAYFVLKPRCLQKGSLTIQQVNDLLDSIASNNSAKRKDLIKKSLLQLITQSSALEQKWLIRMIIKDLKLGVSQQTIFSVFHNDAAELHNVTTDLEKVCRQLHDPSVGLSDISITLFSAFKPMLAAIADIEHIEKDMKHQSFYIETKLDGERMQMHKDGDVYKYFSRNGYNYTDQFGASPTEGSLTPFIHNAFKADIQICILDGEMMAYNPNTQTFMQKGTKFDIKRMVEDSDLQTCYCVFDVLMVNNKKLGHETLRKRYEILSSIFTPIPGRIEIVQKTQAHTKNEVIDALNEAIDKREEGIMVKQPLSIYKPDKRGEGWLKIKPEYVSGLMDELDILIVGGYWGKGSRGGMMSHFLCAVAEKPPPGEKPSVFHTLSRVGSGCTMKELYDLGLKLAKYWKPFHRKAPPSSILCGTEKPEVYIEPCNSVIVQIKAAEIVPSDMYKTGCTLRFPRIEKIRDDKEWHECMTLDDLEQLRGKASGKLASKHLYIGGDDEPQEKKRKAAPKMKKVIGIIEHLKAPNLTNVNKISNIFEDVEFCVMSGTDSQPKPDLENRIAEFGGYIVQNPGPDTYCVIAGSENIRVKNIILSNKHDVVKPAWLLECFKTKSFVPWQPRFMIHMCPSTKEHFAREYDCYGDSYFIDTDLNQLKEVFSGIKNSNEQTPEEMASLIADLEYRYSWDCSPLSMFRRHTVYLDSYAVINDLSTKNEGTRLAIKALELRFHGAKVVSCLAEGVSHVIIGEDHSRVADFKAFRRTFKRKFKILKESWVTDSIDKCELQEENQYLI
Sequence of ligase IV (Q13426 whole entry partner): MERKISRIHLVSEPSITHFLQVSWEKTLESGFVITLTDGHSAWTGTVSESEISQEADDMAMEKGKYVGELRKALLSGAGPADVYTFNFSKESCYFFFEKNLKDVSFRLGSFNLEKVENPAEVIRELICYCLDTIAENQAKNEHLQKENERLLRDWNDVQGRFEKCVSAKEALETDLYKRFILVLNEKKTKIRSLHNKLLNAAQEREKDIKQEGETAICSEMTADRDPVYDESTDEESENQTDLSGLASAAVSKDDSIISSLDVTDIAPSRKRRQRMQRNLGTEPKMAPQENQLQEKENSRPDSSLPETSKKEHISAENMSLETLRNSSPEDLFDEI
Sequence of hLig1-DNA complex (P18858 whole entry, one chain of several): as the sequence (P18858 whole entry) above

As to `CCCCCCCCCCCC[N+](C)(CCCCCCCCCCCC)CC(=O)NC1CCC(=O)N(CC(=O)c2ccccc2)C1=O` (stereo not drawn) [Compound 8k, {[2,6-Dioxo-1-(2-oxo-2-phenyl-ethyl)-piperidin-3-ylcarbamoyl]-methyl}-Didodecyl-methyl-ammonium iodide], the IC50 in assay [1] is 5.61 µM; in assay [1] (Homo sapiens), 5.6 µM; in assay [2] (48 h), over 20 µM; in assay [2] (Homo sapiens, MCF7, 48 h), 26.3 µM. On human ligase I (1 μM), this compound showed an inhibition at 1 µM of about 50%. Moreover, the “inhibition of ligase I activity” value against human ligase I (10 μM) is “complete inhibition”. The “DNA ligase I / ligation inhibition (in words)” value at human ligase I (screening, FIG. 4 and FIG. 7) is “most prolific inhibitor of ligation; also recorded: inhibition of DNA ligase I activity; also recorded: showed inhibition of DNA ligation”. Moreover, the “inhibition of ligase IV” value at ligase IV (5 μM) is listed as “No appreciable inhibition”. Moreover, the “effect on ligase IV activity” value at ligase IV (even at higher concentrations) is listed as “no effect”. For the same compound, the “mode of inhibition by EMSA” value on hLig1-DNA complex is “un-competitive mode of inhibition”. For the same compound, the “inhibition of T4 ligase” value against T4 DNA ligase is “No appreciable inhibition”. Further, the DNA intercalation entry in assay [3] was “no appreciable intercalation”.

For the origin of these results see US10266564B2, “Cationic lipid cordiarimide hybrid compounds and a process for preparation thereof” (COUNCIL OF SCIENTIFIC & INDUSTRIAL RESEARCH, priority 2014, dated 2019).
